Experimental data: patent US10040788B2, “1,3,4-thiadiazole compounds and their use in treating cancer” (AstraZeneca AB, priority 2014, dated 2018)

test system: NCI-H1703 cells; experiment: GLS Cell Proliferation Assay (NCI-H1703); assay type: cell-based, human; conditions: Homo sapiens, 120 h; NCI-H1703 cells, 5 days incubation; geometric mean where repeated; read-out: Assay c) GLS Cell Proliferation Assay
Source text: The following assays were used to measure the effects of the compounds of the present invention: a) GLS Enzyme Potency Assay; b) GLS Cell Potency Assay; c) GLS Cell Proliferation Assay; and d) Mouse Xenograft Model. During the description of the assays, generally: • i. The following abbreviations have been used: CO2=Carbon dioxide; DMEM=Dulbecco's Modified Eagle Medium; DMSO=Dimethyl sulphoxide; EDTA=Ethylenediaminetetraacetic acid; EGTA=Ethylene glycol tetraacetic acid; FCS=Foetal calf serum; h=Hour(s); NBS=Non-binding surface; SDS=Sodium dodecyl sulphate; r.t.=room temperature; TRIS=Tris(Hydroxymethyl)aminomethane. • ii. […]
The ability of compounds to inhibit cell growth was measured using a 384 well plate NCI-H1703 cell proliferation assay. NCI-H1703 cells were grown in phenol red free RPMI1640, 10% FCS and 2 mM glutamine and seeded at a density of 750 cells per well in 40 μl of growth medium into clear-bottom 384 well assay plates (Corning product code 3712) and incubated for 24 h at 37° C., 5% CO2. […] DMSO concentration was maintained at 0.3% by back filling with DMSO solution. Plates were incubated for 5 days at 37° C., 5% CO2, Sytox Green and Saponin added to final concentration of 2 μM and 0.25% respectively and incubated for 6 h prior to analysis. Plates were read on an Acumen eX3 (TTP Labtech) using 488 nm excitation and FITC filter set (500-530 nm) for emission. IC50 values were calculated by curve fitting to max inhibition of day zero growth using GeneData software analysis.

Row | IC50 | SMILES
1 | 179 nM | CO[C@@H](C(=O)Nc1nnc(N[C@@H]2CCN(c3cccnn3)C2)s1)c1ccccc1 [Example 2(b), (2R)-2-Methoxy-2-phenyl-N-[5-[[(3R)-1-pyridazin-3-ylpyrrolidin-3-yl]amino]-1,3,4-thiadiazol-2-yl]acetamide]
2 | 1.88 nM | [2H]C([2H])([2H])O[C@H](C(=O)Nc1nnc(N[C@@H]2CCN(c3cccnn3)C2)s1)c1ccccc1 [18(a), (2S)-2-phenyl-N-[5-[[(3R)-1-pyridazin-3-ylpyrrolidin-3-yl]amino]-1,3,4-thiadiazol-2-yl]-2-(trideuteriomethoxy)acetamide]
3 | 1.32 nM | CCO[C@H](C(=O)Nc1nnc(N[C@@H]2CCN(c3cccnn3)C2)s1)c1cccc(OC(F)(F)F)c1 [Example 16(a), (2S)-2-Ethoxy-N-[5-[[(3R)-1-pyridazin-3-ylpyrrolidin-3-yl]amino]-1,3,4-thiadiazol-2-yl]-2-[3-(trifluoromethoxy)phenyl]acetamide]
4 | 71.6 nM | CCO[C@H](C(=O)Nc1nnc(N[C@@H]2CCN(c3cccnn3)C2)s1)c1cccc(OC)c1 [30(a), (2S)-2-ethoxy-2-(3-methoxyphenyl)-N-[5-[[(3R)-1-pyridazin-3-ylpyrrolidin-3-yl]amino]-1,3,4-thiadiazol-2-yl]acetamide]
5 | 13.5 nM | CO[C@H](C(=O)Nc1nnc(N[C@@H]2CCN(c3cccnn3)C2)s1)c1ccc(F)cc1 [Example 12(a), (2S)-2-(4-Fluorophenyl)-2-methoxy-N-[5-[[(3R)-1-pyridazin-3-ylpyrrolidin-3-yl]amino]-1,3,4-thiadiazol-2-yl]acetamide]
6 | 2240 nM | CO[C@@H](C(=O)Nc1nnc(N[C@@H]2CCN(c3nccnn3)C2)s1)c1ccccc1 [Example 1(b), (2R)-2-Methoxy-2-phenyl-N-[5-[[(3R)-1-(1,2,4-triazin-3-yl)pyrrolidin-3-yl]amino]-1,3,4-thiadiazol-2-yl]acetamide]
7 | 429 nM | CO[C@@H](C(=O)Nc1nnc(N[C@@H]2CCN(c3cccnn3)C2)s1)c1ccc(F)cc1 [Example 12(b), (2R)-2-(4-Fluorophenyl)-2-methoxy-N-[5-[[(3R)-1-pyridazin-3-ylpyrrolidin-3-yl]amino]-1,3,4-thiadiazol-2-yl]acetamide]
8 | 3570 nM | CO[C@H](C(=O)Nc1nnc(N[C@@H]2CCN(c3nccnn3)C2)s1)c1ccc(F)cc1 [17(a), (2S)-2-(4-fluorophenyl)-2-methoxy-N-[5-[[(3R)-1-(1,2,4-triazin-3-yl)pyrrolidin-3-yl]amino]-1,3,4-thiadiazol-2-yl]acetamide]
9 | 10.7 nM | CO[C@H](C(=O)Nc1nnc(N[C@@H]2CCN(c3cncnn3)C2)s1)c1cccc(OC(F)(F)F)c1 [22(a), (2S)-2-methoxy-N-[5-[[(3R)-1-(1,2,4-triazin-6-yl)pyrrolidin-3-yl]amino]-1,3,4-thiadiazol-2-yl]-2-[3-(trifluoromethoxy)phenyl]acetamide]
10 | 6.94 nM | CO[C@@H](C(=O)Nc1nnc(N[C@@H]2CCN(c3cccnn3)C2)s1)c1cccc(OC(F)F)c1 [Example 7(b), (2R)-2-[3-(Difluoromethoxy)phenyl]-2-methoxy-N-[5-[[(3R)-1-pyridazin-3-ylpyrrolidin-3-yl]amino]-1,3,4-thiadiazol-2-yl]acetamide]
11 | 9.28 nM | CCO[C@H](C(=O)Nc1nnc(N[C@@H]2CCN(c3cccnn3)C2)s1)c1ccc(OC)cc1 [28(a), (2S)-2-ethoxy-2-(4-methoxyphenyl)-N-[5-[[(3R)-1-pyridazin-3-ylpyrrolidin-3-yl]amino]-1,3,4-thiadiazol-2-yl]acetamide]
12 | 2050 nM | COc1ccc([C@H](OC)C(=O)Nc2nnc(N[C@@H]3CCN(c4nccnn4)C3)s2)cc1OC [26(a), (2S)-2-(3,4-dimethoxyphenyl)-2-methoxy-N-[5-[[(3R)-1-(1,2,4-triazin-3-yl)pyrrolidin-3-yl]amino]-1,3,4-thiadiazol-2-yl]acetamide]
13 | 2.23 nM | CO[C@H](C(=O)Nc1nnc(N[C@@H]2CCN(c3cccnn3)C2)s1)c1cccc(OC(F)F)c1 [Example 7(a), (2S)-2-[3-(Difluoromethoxy)phenyl]-2-methoxy-N-[5-[[(3R)-1-pyridazin-3-ylpyrrolidin-3-yl]amino]-1,3,4-thiadiazol-2-yl]acetamide]
14 | 1.94 nM | [2H]C([2H])([2H])O[C@]([2H])(C(=O)Nc1nnc(N[C@@H]2CCN(c3cccnn3)C2)s1)c1ccccc1 [20(a), (2S)-2-deuterio-2-phenyl-N-[5-[[(3R)-1-pyridazin-3-ylpyrrolidin-3-yl]amino]-1,3,4-thiadiazol-2-yl]-2-(trideuteriomethoxy)acetamide]
15 | 2.01 nM | CCO[C@@H](C(=O)Nc1nnc(N[C@@H]2CCN(c3cccnn3)C2)s1)c1cccc(OC)c1 [30(b), (2R)-2-ethoxy-2-(3-methoxyphenyl)-N-[5-[[(3R)-1-pyridazin-3-ylpyrrolidin-3-yl]amino]-1,3,4-thiadiazol-2-yl]acetamide]
16 | 166 nM | [2H]C([2H])([2H])O[C@@]([2H])(C(=O)Nc1nnc(N[C@@H]2CCN(c3cccnn3)C2)s1)c1ccccc1 [20(b), (2R)-2-deuterio-2-phenyl-N-[5-[[(3R)-1-pyridazin-3-ylpyrrolidin-3-yl]amino]-1,3,4-thiadiazol-2-yl]-2-(trideuteriomethoxy)acetamide]
17 | 53.5 nM | CO[C@H](C(=O)Nc1nnc(N[C@@H]2CCN(c3nccnn3)C2)s1)c1ccccc1 [Example 1(a), (2S)-2-Methoxy-2-phenyl-N-[5-[[(3R)-1-(1,2,4-triazin-3-yl)pyrrolidin-3-yl]amino]-1,3,4-thiadiazol-2-yl]acetamide]
18 | 151 nM | CCO[C@@H](C(=O)Nc1nnc(N[C@@H]2CCN(c3cccnn3)C2)s1)c1ccc(OC)cc1 [28(b), (2R)-2-ethoxy-2-(4-methoxyphenyl)-N-[5-[[(3R)-1-pyridazin-3-ylpyrrolidin-3-yl]amino]-1,3,4-thiadiazol-2-yl]acetamide]
19 | 101 nM | COc1ccc([C@@H](OC)C(=O)Nc2nnc(N[C@@H]3CCN(c4nccnn4)C3)s2)cc1OC [26(b), (2R)-2-(3,4-dimethoxyphenyl)-2-methoxy-N-[5-[[(3R)-1-(1,2,4-triazin-3-yl)pyrrolidin-3-yl]amino]-1,3,4-thiadiazol-2-yl]acetamide]
20 | 35.4 nM | CO[C@@H](C(=O)Nc1nnc(N[C@@H]2CCN(c3cncnn3)C2)s1)c1cccc(OC(F)F)c1 [23(b), (2R)-2-[3-(difluoromethoxy)phenyl]-2-methoxy-N-[5-[[(3R)-1-(1,2,4-triazin-6-yl)pyrrolidin-3-yl]amino]-1,3,4-thiadiazol-2-yl]acetamide]
21 | 2.47 nM | CCO[C@@H](C(=O)Nc1nnc(N[C@@H]2CCN(c3cccnn3)C2)s1)c1cccc(OC(F)F)c1 [Example 15(b), (2R)-2-[3-(Difluoromethoxy)phenyl]-2-ethoxy-N-[5-[[(3R)-1-pyridazin-3-ylpyrrolidin-3-yl]amino]-1,3,4-thiadiazol-2-yl]acetamide]
22 | 36.8 nM | CO[C@@H](C(=O)Nc1nnc(N[C@@H]2CCN(c3nccnn3)C2)s1)c1cccc(OC(F)(F)F)c1 [Example 8(b), (2R)-2-Methoxy-N-[5-[[(3R)-1-(1,2,4-triazin-3-yl)pyrrolidin-3-yl]amino]-1,3,4-thiadiazol-2-yl]-2-[3-(trifluoromethoxy)phenyl]acetamide]
23 | 0.921 nM | CCO[C@H](C(=O)Nc1nnc(N[C@@H]2CCN(c3cccnn3)C2)s1)c1cccc(OC(F)F)c1 [Example 15(a), (2S)-2-[3-(Difluoromethoxy)phenyl]-2-ethoxy-N-[5-[[(3R)-1-pyridazin-3-ylpyrrolidin-3-yl]amino]-1,3,4-thiadiazol-2-yl]acetamide]
24 | 120 nM | CO[C@@H](C(=O)Nc1nnc(N[C@@H]2CCN(c3nccnn3)C2)s1)c1ccc(F)cc1 [17(b), (2R)-2-(4-fluorophenyl)-2-methoxy-N-[5-[[(3R)-1-(1,2,4-triazin-3-yl)pyrrolidin-3-yl]amino]-1,3,4-thiadiazol-2-yl]acetamide]
25 | 73 nM | [2H]C([2H])([2H])O[C@@H](C(=O)Nc1nnc(N[C@@H]2CCN(c3cccnn3)C2)s1)c1ccccc1 [18(b), (2R)-2-phenyl-N-[5-[[(3R)-1-pyridazin-3-ylpyrrolidin-3-yl]amino]-1,3,4-thiadiazol-2-yl]-2-(trideuteriomethoxy)acetamide]
26 | 4.63 nM | CO[C@H](C(=O)Nc1nnc(N[C@@H]2CCN(c3cncnn3)C2)s1)c1cccc(OC(F)F)c1 [23(a), (2S)-2-[3-(difluoromethoxy)phenyl]-2-methoxy-N-[5-[[(3R)-1-(1,2,4-triazin-6-yl)pyrrolidin-3-yl]amino]-1,3,4-thiadiazol-2-yl]acetamide]
27 | 5.04 nM | CO[C@H](C(=O)Nc1nnc(N[C@@H]2CCN(c3nccnn3)C2)s1)c1cccc(OC(F)(F)F)c1 [Example 8(a), (2S)-2-Methoxy-N-[5-[[(3R)-1-(1,2,4-triazin-3-yl)pyrrolidin-3-yl]amino]-1,3,4-thiadiazol-2-yl]-2-[3-(trifluoromethoxy)phenyl]acetamide]
28 | 6.38 nM | CCO[C@@H](C(=O)Nc1nnc(N[C@@H]2CCN(c3cccnn3)C2)s1)c1cccc(OC(F)(F)F)c1 [Example 16(b), (2R)-2-Ethoxy-N-[5-[[(3R)-1-pyridazin-3-ylpyrrolidin-3-yl]amino]-1,3,4-thiadiazol-2-yl]-2-[3-(trifluoromethoxy)phenyl]acetamide]
